From PMC11061149, “Protein mimetic 2D FAST rescues alpha synuclein aggregation mediated early and post disease Parkinson’s phenotypes” (Nature Communications, 2024)
Values joined by “and” are separate entries in the source; they are usually repeats but may differ in a detail not shown here. Identical values can stand only once.

Assays:
[1] = target: T1, α-Synuclein (αS) aggregation (Homo sapiens, UniProt P37840); assay: Thioflavin T (ThT) dye-based αS aggregation assay (de novo); format: biochemical; conditions: for ThT intensity of Synuclein with ligand, Average / ThT intensity of Synuclein with ligand, Trial 1-3: sheet S17; for ThT intensity of Synuclein with ligand, Average: average of 3 trials, Synuclein alone 206, ThT control 37; for ThT intensity of Synuclein with ligand, Trial 1-3: individual trials, Synuclein alone average 206, ThT control average 37
T1 construct: made in house; host or cells: E. coli BL21(DE3)
Procedure: We used a 2D FAST approach in OPs to identify potent antagonists of the aggregation of αS. In this approach, we start with a library of monopyridyls with different functional groups. The library of monopyridyls was synthesized using 2-chloro-6-methyl-3-nitropyridine as a common precursor, which was treated with primary alcohols with diverse side chain functionalities via a one-pot reaction (Fig. 1B, a and see Supplementary information for synthetic details). […] We selected the side chains containing hydrophobic, polar, positively charged, and negatively charged functional groups, which mimic the side chains of the amino acids (Fig. 1C). […] The monopyridyl library was screened against the aggregation of 100 μM αS at an equimolar ratio using Thioflavin T (ThT) dye-based aggregation assay (Fig. 1B, b). […] The chloro-dipyridyl was reacted with a library of primary amines/thiols to synthesize a library of dipyridyls (Fig. 1B, e) using a one-pot reaction. […] However, a few dipyridyls required column chromatography to separate them from the starting material side chains because of their very high boiling point (7 out of 21 dipyridyls required column, Supplementary Fig. 1). […]
Aggregation Kinetics were measured according to a previously described protocol. […] The solutions were placed in a ThermoMixer (Eppendorf, Hamberg, Germany) at 37 °C with constant shaking at 1300 rpm (rpm). At different time points, 5 μL aliquots of each αS solution were added to 95 μL PBS containing 50 μM Thioflavin T (ThT) dye in a Costar black 96 well plate (Corning Inc., Kennebunk, ME). ThT fluorescence intensity was measured (λex = 450 nm and λem = 490 nm) on an Infinite M200PRO plate reader (Tecan, Männedorf, Switzerland), and plotted against time to give a sigmoidal curve typical of amyloid aggregation. For the single point ThT aggregation, 100 μM αS, in the absence and presence of ligands, was aggregated under the described conditions and the ThT fluorescence was reported at 96 h. The reported ThT intensity values are the average of each experiment conducted in triplicate, with the error bars representing the standard deviations or standard error of the mean (s.e.m.) as described in the main manuscript.

[2] = test system: UA196 worms (human αS and GFP in DA neurons); assay: Confocal counting of healthy DA neurons in UA196 worms, early treatment (day two and four); format: in vivo, C. elegans; conditions: for number of intact DA neurons in UA196 worms (max. 60): 50 µM ligand on day two and four, day 15 (untreated 13.5); for Number of healthy DA neurons per trial (sheet 7L): UA196 worms + ligand, Day 15, single trials; for Total neurons, UA196 worms+Ligands: one value per trial, day not given for ligand (controls: Day 3, Day 15)
Source text: The aggregation of αS is associated with the neurodegeneration of DA neurons, which is a pathological hallmark of PD. Next, we investigated the neuroprotective effect of NS163 on the intraneuronal αS aggregation-mediated degeneration of DA neurons in a well-established C. elegans PD model (UA196)[20],[72]–[75]. The UA196 worms express both human αS and GFP in DA neurons under the control of the dopamine promoter genotype (Pdat-1::GFP; Pdat-1::α-SYN). The expression and aggregation of αS in six DA neurons that are located within the anterior region of worms lead to progressive neurodegeneration characteristics during the aging of UA196 worms. This strain has been used to gain insights into the PD-associated mechanisms and to assess the neuroprotective effect of ligands against the intraneuronal αS aggregation[20],[72]–[75]. During the aging of worms, αS protein aggregates and degenerates the DA neurons as represented by the gradual loss of cell bodies as observed from day 3 (Fig. 7b, c, filled red arrow) to day 5 (Fig. 7d, e, empty red arrow), to day 15 (Fig. 7f, g, empty red arrow). Additionally, there was fragmentation and blebbing of neurites from day 3 (Fig. 7b, c, filled yellow arrow) to day 5 (Fig. 7d, e, empty yellow arrow), which has been observed by others as well[72]–[75]. The maximum number of healthy DA neurons in one UA196 worm is six on day 3 (no degeneration) and we used 10 worms/biological replicate, which makes a total of 60 healthy DA neurons/biological replicate. Therefore, for each study, the maximum number of healthy DA neurons in UA196 worms is 60 as an average for each biological replicate. […] None of the UA196 worms had all six healthy DA neurons on day 5 (Fig. 7k, -NS163) and there was a gradual decline in the total number of healthy DA neurons in UA196 worms (Supplementary Fig. 26a). […] The average number of intact DA neurons in UA196 worms treated with NS163 was 59.5, 58.7, and 57.3 on day five, 10, and 15, respectively (Fig. 7j, red line). Additionally, the total number of treated worms with all six intact DA neurons were 57, 52, and 47 on day 5, 10, and 15, respectively (Fig. 7k, Supplementary Fig. 26b).
In UA196 strain, human αS and GFP are expressed in DA neurons under control of a dopamine transporter-specific promoter [Pdat-1::α-syn+Pdat-1::GFP], which results in age-dependent neurodegeneration of six DA neurons.
This experiment was performed based on previously described protocols with slight modifications[24],[65],[88]. Briefly, the worm strains (NL5901 or UA196) were bleached at the same time and the eggs were incubated on PLATE 1. On day two, the worms were divided into two batches. One half of the worms were transferred (using M9 buffer) on PLATE 2 (without ligand) and the second half of the worms were transferred to PLATE 3 (with ligand). The concentration of the ligands varied from 10–50 µM as described in the main manuscript. The worms were incubated on PLATE 2 or PLATE 3 up to day 3 at 20 °C in an incubator with constant humidity. On day four, the ligand (10–50 µM, stock conc. = 10 mM in DMSO, DMSO from 0.1–0.5%, v/v) was added again to PLATE 3. For confocal imaging, at least 10 worms per condition (from PLATE 2 or PLATE 3) were transferred to a cover slide containing an anesthetic (40 mM sodium azide), and mounted on glass microscope slide containing 2% agarose pads using a reported protocol. The images of the worms were collected using an Olympus Fluoview FV3000 confocal/2-photon microscope (40 x Plan-Apo/1.3 NA objective with DIC capability) and processed using the OlympusViewer in ImageJ software. For NL5901 worms, the inclusions of the aggregated αS (GFP puncta in the muscle cells) were manually counted (10 worms per condition) for the five-day imaging period (day 5 to day 9) for PLATE 2 or PLATE 3. […]

[3] = test system: UA196 worms; assay: Confocal counting of healthy DA neurons, post-disease onset PD model of UA196 worms (treatment on day five); format: in vivo, C. elegans; conditions: for number of intact healthy DA neurons (max. 60): day 15 (untreated 13.8 / 12.8); for healthy DA neurons per trial: UA196 worms+Ligands, single trials 1-6, day not given; for Healthy DA neurons, UA196 worms+Ligands: individual trials 1-6
Procedure: The UA196 worms were bleached, and the eggs were incubated on PLATE 1. On day two, the UA196 worms were transferred (using M9 buffer) on PLATE 2 (without ligand). On day five, 10 UA196 worms were used to determine the number of healthy DA worms using confocal imaging (as described earlier) prior to the treatment with ligands on day five. In tandem, ~50 worms were transferred to PLATE 3 (with ligand) using M9 buffer (10-20 µL) and the plate was incubated at 20 °C in the incubator. On days 10 and 15, 10 UA196 worms from PLATE 2 (without ligand) and PLATE 3 (with ligand) were used to determine the number of healthy DA worms using confocal imaging (as described earlier). For each condition, six biological replicates were performed and at least 10 technical replicates were used for each biological replicate. […] (n = 6 independent experiments and each n consisted of a minimum of ten technical replicates).

[4] = 100 µM αS + equimolar ligand, comparison with reported ligands Fig. 5f, time 0 hr

Row | ThT fluorescence intensity, Average [1, 4] | ThT fluorescence intensity, Average ([1]; Fig. 5f profile, time 6 hr) | ThT fluorescence intensity, Average ([1]; Fig. 5f profile, time 12 hr) | ThT fluorescence intensity, Average ([1]; Fig. 5f profile, time 24 hr) | ThT fluorescence intensity, Average ([1]; Fig. 5f profile, time 36 hr) | ThT fluorescence intensity, Average ([1]; Fig. 5f profile, time 48 hr) | ThT fluorescence intensity, Average ([1]; Fig. 5f profile, time 72 hr) | ThT fluorescence intensity, Average ([1]; Fig. 5f profile, time 96 hr) | ThT intensity of Synuclein with ligand, Average [1] | ThT intensity of Synuclein with ligand, Trial 1-3 [1] | decrease of the overall ThT intensity ([1]; 100 µM αS, equimolar, after 96 h) | SMILES | number of intact DA neurons in UA196 worms (max. 60) [2] | Number of healthy DA neurons per trial (sheet 7L) [2] | Total neurons, UA196 worms+Ligands [2] | number of intact healthy DA neurons (max. 60) ([3]; 50 μM ligand on day five) | healthy DA neurons per trial [3] | Healthy DA neurons, UA196 worms+Ligands [3] | rescue of the degeneration of DA neurons in UA196 worms, in words ([2]; 50 μM ligand) | rescue of the degeneration of DA neurons in the post-disease onset PD model, in words ([3]; 50 μM ligand on day five, day 15)
1 | 55.6667 | 61.3333 | 52.3333 | 42 | 69.6667 | 159.667 | 195 | 186 | 186.333 | 176 and 194 and 189 |  | C=C(c1ccc(C(=O)O)cc1)c1cc2c(cc1C)C(C)(C)CCC2(C)C [Bexarotene] | 19.3 | 19 and 22 and 20 and 16 and 21 and 18 | 19 and 22 and 20 and 16 and 21 and 18 | 13.2 | 11 and 17 and 13 and 10 | 11 and 17 and 13 and 10 |  | 
2 | 56 | 50.6667 | 62.3333 | 61.3333 | 75.6667 | 84 | 151.667 | 150.333 | 150.333 | 126 and 174 and 151 | ~ 25% | O=C(O[C@@H]1Cc2c(O)cc(O)cc2O[C@@H]1c1cc(O)c(O)c(O)c1)c1cc(O)c(O)c(O)c1 [EGCG] | 30.5 | 26 and 33 and 32 and 27 and 31 and 34 | 26 and 33 and 32 and 27 and 31 and 34 | 20.5 | 24 and 17 and 26 and 18 and 21 | 24 and 17 and 26 and 18 and 21 | moderate in rescuing | moderate in rescuing
3 | 49.6667 | 48.3333 | 49.6667 | 78.6667 | 140.667 | 137 | 175.333 | 229.667 | 229.667 | 238.6 and 233 and 217.4 |  | OCCc1ccc(O)cc1 [Tyrosol] | 21.7 | 22 and 23 and 17 and 21 and 24 | 22 and 23 and 17 and 21 and 24 | 14.3 | 12 and 19 and 17 and 11 and 15 | 12 and 19 and 17 and 11 and 15 |  | 
4 | 62.3333 | 44 | 66.6667 | 135.333 | 121.333 | 133.333 | 167.333 | 165.667 | 165.667 | 177.5 and 155 and 164.5 |  | CCCC(CCC)C(=O)O [Valporic acid] | 18.7 | 21 and 16 and 22 and 17 and 20 | 21 and 16 and 22 and 17 and 20 | 13.5 | 9 and 17 and 15 and 11 and 16 and 13 | 9 and 17 and 15 and 11 and 16 and 13 |  | 
